Test results taken from publication PMC3707052 (Alzheimer's Research & Therapy, 2013).
Where two headings read alike, the source gives them in different places.

Experiments:
gamma-secretase [1] = experiment: Aβ peptides in conditioned media of CHO-2B7 cells (MSD 3-Plex); type: cell-based, Chinese hamster; conditions: for IC50: 5 hrs treatment, conditioned media
Procedure: CHO-2B7 cells (Mayo Clinic) are Chinese hamster ovary cells stably transfected with human βAPP 695wt. The cells were cultured in Ham's F12 media (Thermo Fisher SH30026.01, Waltham, MA, USA) supplemented with 10% FBS, 0.25 mg/mL Zeocin and 90 ug/mL penicillin/streptomycin at 37°C in a 5% CO2 atmosphere. For compound treatment, cells were plated in 96-well plates at a density of 1.0 × 10^5 cells/mL and allowed grow to 100% confluence over two days. Test compounds in dimethyl sulfoxide (DMSO) were diluted 100-fold directly into the media before being adding to the cells. Immediately prior to adding compound-containing media to the cells, the cells were washed once with 1X PBS. Conditioned media from CHO-2B7 cells were collected after 5 hrs of treatment and the levels of Aβ peptides were assessed as described below.
Conditioned media were collected after 5 hrs of treatment and diluted with one volume of MSD blocking buffer (1% BSA in MSD wash buffer). MSD Human (6E10) Aβ 3-Plex plates, which are pre-spotted with three separate spots in each well containing capture antibodies against the unique C-terminal ends of Aβ38, Aβ40 and Aβ42, respectively, were blocked with MSD blocking buffer for one hour. Samples were transferred to the blocked plates with 6E10 detection antibody and incubated for 2 hrs at room temperature with orbital shaking followed by washing and reading according to the manufacturer's instructions (SECTOR® Imager 2400 Meso Scale Discovery, Gaithersburg MD, USA).

gamma-secretase [2] = target: gamma-secretase; design: method as in PMID 22505028, PMID 19542625; conditions: weak modulator; cited from earlier work
gamma-secretase [3] = experiment: Six-day once-a-day oral dosing PK/PD in Tg2576 mice (brain, plasma, CSF Aβ); type: in vivo; conditions: positive control, orally once on day six, 6 hrs post dose
Procedure: Female transgenic mice (Tg2576, 3 months of age; n = 20), wild-type male CD-1 mice (six weeks of age; n = 8 to 12) or wild-type male Sprague Dawley rats (200 to 225 g body weight; n = 12) were utilized to assess in vivo efficacy.
In the transgenic studies, compound was dosed in 10:20:70 ethanol/solutol/water via oral gavage. […] The mice were subjected to cisterna magna puncture and collection of cerebrospinal fluid (CSF) (approximately 5 μl per mouse). Individual CSF samples were flash-frozen on dry ice and stored at -80°C. Thereafter, the mice were subjected to cardiac puncture and blood samples were collected into K2EDTA tubes and stored on wet ice until processed to plasma by centrifugation (2,000 g at 4°C for 10 minutes) within 30 minutes of collection. The plasma was aliquoted for both Aβ measurements and parent drug using LC/MS/MS. Both sets of tubes were frozen at -80°C. The brains were perfused with non-heparinized saline (the blood flushed away) and removed carefully. Brains were rinsed with ice cold PBS (without Mg^2+ or Ca^2+), blotted dry, dissected on ice into three pieces (left and right hemisphere and cerebellum). Samples were frozen in liquid nitrogen immediately prior to storage at -80°C. Cerebella were analyzed for parent drug via LC/MS/MS. Parent drug levels were compared to a standard curve to establish the plasma, brain and CSF levels. […]

**Q.** Which “Total Aβ” value (gamma-secretase [1]; CHO-2B7 cells) does the source give for `CCO[C@@H]([C@H]1C[C@@H](C)[C@H]2[C@@H](O1)[C@H](O)[C@@]1(C)[C@@H]3CC[C@H]4C(C)(C)[C@@H](O[C@H]5CN(C6CN(C(C)C)C6)CCO5)CC[C@@]45C[C@@]35CC[C@]21C)C(C)(C)O` [SPI-1865] here?
**A.** Its value is “only decreased at doses where cytotoxicity was observed”.

**Q.** And the IC50 (gamma-secretase [1]; CHO-2B7 cells, read-out: IC50 Aβ38)?
**A.** The IC50 was 259 nM.

**Q.** And the IC50 (gamma-secretase [1]; CHO-2B7 cells, read-out: IC50 Aβ40)?
**A.** The IC50 was 2800 nM.

**Q.** What about the IC50 (gamma-secretase [1]; CHO-2B7 cells, read-out: IC50 Aβ42) of the same compound?
**A.** The IC50 was 106 nM.

**Q.** And the “IC25 Aβ42” value (gamma-secretase [1]; in vitro)?
**A.** The value was 33 ± 18 nM.

**Q.** For `C[C@@H](C(=O)O)c1ccc(-c2ccccc2)c(F)c1` [Flurizan], which IC50 (gamma-secretase [2]) is on record?
**A.** The IC50 was 250000 nM.

**Q.** With `CC(C)CC[C@H](c1ccc(Cl)cc1)N1CC[C@@H](CC(=O)O)C[C@H]1c1ccc(C(F)(F)F)cc1` [Merck GSM-1] as the compound, how does the “effect on Aβ38 levels” value (gamma-secretase [3]) read?
**A.** Its value is “increased Aβ38 levels”.

**Q.** And the “effect on Aβ42 levels” value (gamma-secretase [3])?
**A.** Its value is “significantly reduced Aβ42”.
